Where a SMILES comes first, the peptide text is derived from it. [ ]: non-standard residue; d: D form. ξ: configuration not given here. Aoe(9ξ) = N[C@@H](CCCCCC(=O)C1CO1)C(=O)O; dPip = O=C(O)[C@H]1CCCCN1

Holding throughout (format): cell-based, human
In assay [1] the test system is Flo-1 cells. The experiment in a line: Epigenetic compound library screen (CellTiter-Glo, 72 h). The following applies: Flo-1, 6μM; for cytotoxicity at 6 µM: Homo sapiens, read-out: % cell killing /control. The procedure: (§1) We tested a 163 compound epigenetic library that consists of inhibitors and activators of epigenetic modifying enzymes (writers, erasers and readers). All compounds were dissolved in 100% DMSO and tested in duplicate at a nominal test concentration of 6μM. Wells with assay buffer containing DMSO served as negative controls. 1000 exponentially growing cells were seeded per well in 384-well micro-titer plates and incubated in the presence of compounds in a humidified environment at 37°C and 5% CO2. After 72 hours of treatment, cell viability was assessed by measuring ATP levels via bioluminescence (CellTiter-Glo, Promega). […] Curve fitting and statistical analyses are performed in GraphPad prism.
In general terms: In ATP-based viability assays light output follows the ATP content of the culture.

In assay [2] the test system is OE33 cells. The assay is described as above. Particulars: OE33, 6μM; for cytotoxicity at 6 µM: Homo sapiens, read-out: % cell killing /control. How it is done:
as §1

Assay [3] concerns EAC47 cells. Described as above. Particulars: EAC47, 6μM; for cytotoxicity at 6 µM: Homo sapiens, read-out: % cell killing /control; for cytotoxicity at 6 µM / % cell killing /control: 72 h. The procedure:
as §1

In assay [4] the test system is normal esophageal epithelium cell line EACN42. The experiment in a line: FDA library drug sensitivity testing (CellTiter-Glo, 72 h), normal control cells. The following applies: EACN42 normal esophageal cells, 72 h; for DSS: drug sensitivity score; for EC50: cell viability (ATP), max test concentration 10μM. More on the design: key to DSS: modified drug sensitivity score (DSSmod) from dose-response curve fit. In outline:
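HPV E6-E7-immortalized normal human esophageal epithelial cells, 1000 per well, exposed 72 h at 37 °C to drugs in duplicate from 10μM top concentration across a 20,000-fold range. Viability by ATP bioluminescence; DMSO wells as negative control; curves scored with modified drug sensitivity score (DSSmod).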

Assay [5] has as its system EAC42 cells. Nature of the assay: FDA library drug sensitivity testing (CellTiter-Glo, 72 h). Particulars: for sDSSmod: sDSSmod = DSSmod (patient cells) - DSSmod (normal cells). The procedure, abridged: (§2)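 1000 cells/well exposed 72 h at 37 °C to drugs in duplicate, top concentration 10μM over a 20,000-fold range; DMSO wells as negative controls. Viability by ATP bioluminescence (CellTiter-Glo). Curves scored with the modified drug sensitivity score (DSSmod/sDSSmod).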

The test system of the next assay is SK-GT2 cells. Described as above. The following applies: SK-GT2; sDSSmod = DSSmod (patient cells) - DSSmod (normal cells). In outline: as §2
Assay [6] has as its system EAC47 cells. The assay is described as above. In outline:
as §2

The next assay has as its system OE19 cells. Described as above. Particulars: sDSSmod = DSSmod (patient cells) - DSSmod (normal cells). In outline: as §2
Assay [7] concerns OE33 cells. The description is as above. The following applies: OE33; sDSSmod = DSSmod (patient cells) - DSSmod (normal cells). In outline:
as §2

The subject of assay [8] is Flo-1 cells. The description is as above. Particulars: Flo-1; sDSSmod = DSSmod (patient cells) - DSSmod (normal cells). The text has this: OE33, OE19 and SKGT2 human esophageal adenocarcinoma cell lines were obtained from the European Collection of Cell Culture ([…]). Flo1, EAC42 and EAC47 cells were established in the Capobianco Laboratory. EAC42 and EAC47 human esophageal adenocarcinoma cell lines are derived from patients undergoing surgery at the Miller School of Medicine, University of Miami. The Capobianco laboratory obtained written informed consent from all patients and approval from the Institutional Research Ethics Committee.
Drug sensitivity testing (DST) was performed as described previously. […] Individual drugs were dissolved in 100% DMSO and tested in duplicates starting at a maximal test concentration of 10μM then over a 20,000-fold concentration range to generate dose response curves. Wells with assay buffer containing DMSO served as negative controls. 1000 exponentially growing cells were seeded per well in 384-well micro-titer plates and incubated in the presence of compounds in a humidified environment at 37°C and 5% CO2. After 72 hours of treatment, cell viability was assessed by measuring ATP levels via bioluminescence (CellTiter-Glo, Promega) according to manufactures recommendations. Interpretation of curve parameters was performed according to the modified drug sensitivity scoring (DSSmod) function developed by Swords et al. As a final step, the selective DSSmod (sDSSmod) for each drug in each patient screen is calculated according to the formula sDSSmod = DSSmod (patient cells)—DSSmod (normal cells). Given in this way, the sDSSmod incorporated information on each drug’s potency, efficacy, effect range and therapeutic index, making it possible to prioritize compounds over multiple parameters using a single numerical metric. In addition, this methodology allows us to rank compounds by cancer-selective efficacy for each individual patient. […] All calculations and scoring routines are implemented in MatLab and additional curve fitting and statistical analyses are performed in GraphPad prism.

In assay [9] the test system is EAC42 cells. The experiment in a line: Clonogenic survival assay. The procedure: (§3) Clonogenic assays were performed as described previously. […] Colony formation was evaluated 14 days after seeding. All experiments were performed in triplicates and two biological replicates. Statistical analyses were performed in GraphPad prism.
Assay [10] concerns EAC47 cells. The experiment in a line: Clonogenic survival assay. The procedure:
as §3

With `O=C(/C=C/c1cccc(S(=O)(=O)Nc2ccccc2)c1)NO` [PXD101], the cytotoxicity at 6 µM with Flo-1 cells [1] was 77.6%; with OE33 cells [2], 92.3%.
For the compound `O=C(CCCCC[C@@H]1NC(=O)[C@H]2CCCCN2C(=O)[C@H](Cc2ccccc2)NC(=O)[C@H](Cc2ccccc2)NC1=O)C1CO1` (stereo partly shown) [Trapoxin A] (cyclo(FF[dPip][Aoe(9ξ)])), the cytotoxicity at 6 µM in the assay with EAC47 cells [3] was found to be 102%; in the assay with Flo-1 cells [1], 96.4%; with OE33 cells [2], 98.9%.
Take `CCN(CC)C(=S)SSC(=S)N(CC)CC` [Disulfiram]: in assay [4], the DSS turned out to be 0. Further, the sDSSmod was found to be 7.112 with EAC42 cells [5] (EAC42) and 10.36 in the assay with SK-GT2 cells. The cytotoxicity at 6 µM with EAC47 cells [3] is 33.9%.
With `CN(C)Cc1c(C(=O)NCCOc2ccc(C(=O)NO)cc2)oc2ccccc12` [PCI-24781 (Abexinostat), Abexinostat], in the assay with OE33 cells [2], the cytotoxicity at 6 µM was determined as 46%.
On to `Cc1sc2c(c1C)C(c1ccc(Cl)cc1)=N[C@@H](CC(N)=O)c1nnc(C)n1-2` [CPI203], for which, in the assay on EAC47 cells [3], the sensitivity in words result is “sensitivity” and the “% cell killing /control” value worked out at 43.29%. Moreover, the “% cell killing /control” value in the assay on Flo-1 cells [1] was determined as 48.79%.
Take `O=Nc1ccc(O)c2ncccc12` [NSC-3852]: the “% cell killing /control” value in the assay on OE33 cells [2] amounted to 42.71%.
As to `CC[C@@H]1C(=O)N(C)c2cnc(Nc3ccc(C(=O)NC4CCN(C)CC4)cc3OC)nc2N1C1CCCC1` [BI-2536], the cytotoxicity at 6 µM in the assay with EAC47 cells [3] came out at 39.5%; with Flo-1 cells [1], 95.9%; in the assay with OE33 cells [2], 77.6%.
For `COc1ccc(-c2nc(N3CCOCC3)c3sc(CN(C)c4ncc(C(=O)NO)cn4)cc3n2)cn1` [CUDC-907], in that order: 115%, 99.7% and 99.4%.
Take `Cn1cc(CNCC2CCN(c3ncc(C(=O)NO)cn3)CC2)c2ccccc21` [JNJ-26481585]: the “% cell killing /control” value turned out to be 113.73% in the assay with EAC47 cells [3], 98.39% in the assay on Flo-1 cells [1] and 99.54% in the assay on OE33 cells [2].
In the case of `Cc1cc(C)cc(C(=O)NOCCCCCC(=O)NO)c1` [LMK 235], the “% cell killing /control” value in the assay with EAC47 cells [3] was 62.72%; in the assay on OE33 cells [2], 80.31%.
For the compound `CCN(CC)Cc1ccc2cc(COC(=O)Nc3ccc(C(=O)NO)cc3)ccc2c1` [Givinostat (ITF2357), Givinostat], the cytotoxicity at 6 µM in the assay on EAC47 cells [3] stood at 96.8%; with Flo-1 cells [1], 90.9%; in the assay on OE33 cells [2] it was 87.7%.
For `Nc1nc(=O)n([C@H]2C[C@H](O)[C@@H](CO)O2)cc1F` [2'-Deoxy-5-fluorocytidine], the cytotoxicity at 6 µM in the assay on EAC47 cells [3] is 86.8%; in the assay with OE33 cells [2] it was 65.2%.
On to `O=C(/C=C/c1cccc(C(=O)NO)c1)NO` [CBHA], for which the “% cell killing /control” value with EAC47 cells [3] is reported as 20.30%.
For `Nc1ccccc1NC(=O)c1ccc(CNC(=O)OCc2cccnc2)cc1` [Entinostat (MS-275), Entinostat], the cytotoxicity at 6 µM with EAC47 cells [3] is 36.6%; in the assay with Flo-1 cells [1], 43.3%; in the assay on OE33 cells [2], 76%.
`Nc1ccn([C@@H]2O[C@H](CO)[C@@H](O)C2(F)F)c(=O)n1` [Gemcitabine]: the EC50 (as a rule, the concentration at which the effect is half-maximal) in assay [4] was 320 nM; with EAC42 cells [5] (Homo sapiens, EAC42, assay not stated explicitly, taken as DST screen, read-out: calculated EC50) it was 6.6 nM; in the assay with EAC47 cells [6] (Homo sapiens, EAC47, assay not stated explicitly, taken as DST screen, read-out: calculated EC50), 10.7 nM. In [4], this compound displayed a DSS of 17.72. Besides, the sDSSmod with EAC42 cells [5] (EAC42) is on record as 14.66; in the assay on EAC47 cells [6] (EAC47, sDSSmod = DSSmod (patient cells) - DSSmod (normal cells)), 8.407; with OE19 cells, -16.819; in the assay on OE33 cells [7], 9.443; in the assay with Flo-1 cells [8], -5. Further, the clonogenic survival in the assay on EAC42 cells [9] (EAC42, 10nM gemcitabine for 2h, colonies after 14 days) is 59.26%; in the assay with EAC47 cells [10] (EAC47, 10nM gemcitabine for 2h, colonies after 14 days), 63.28%.
As for `Nc1ncnc2c1c(I)cn2[C@@H]1O[C@H](CO)[C@@H](O)[C@H]1O` [5-Iodotubercidin], the “% cell killing /control” value in the assay with Flo-1 cells [1] was 50.40%.
Regarding `O=C(/C=C/c1ccc(CN(CCO)CCc2c[nH]c3ccccc23)cc1)NO` [LAQ824], the results for the cytotoxicity at 6 µM in the assay with EAC47 cells [3], in the assay with Flo-1 cells [1] and in the assay on OE33 cells [2] were 108%, 96.8% and 99%, respectively.
Regarding `CC(/C=C/C(=O)NO)=C\[C@@H](C)C(=O)c1ccc(N(C)C)cc1` [Trichostatin A], the “% cell killing /control” value in the assay with EAC47 cells [3] is recorded as 109.49%; in the assay with Flo-1 cells [1] it was 96.32%; in the assay with OE33 cells [2], 98.02%.
For the compound `O=C(CCCCCCC(=O)Nc1ccccc1)NO` [SAHA], the “% cell killing /control” value in the assay with Flo-1 cells [1] is 46.32%.
Turning to `CCCCc1nc2cc(/C=C/C(=O)NO)ccc2n1CCN(CC)CC` [SB 939], the cytotoxicity at 6 µM came out at 78.8% in the assay on Flo-1 cells [1] and 98.9% in the assay on OE33 cells [2].
Consider `N.N.[Cl][Pt][Cl]` [Cisplatin], for which the “treatment response in words” value in assay [4] is on record as “minimal treatment effects”. In [4], this compound displayed an EC50 of 10 nM. The compound further yielded a DSS in assay [4] of 0. For the same compound, the “reduction of cell survival in words” value is listed as “did not result in a reduction of cell survival” in the assay with EAC42 cells [5] (EAC42, concentration of 10μM) and “did not result in a reduction of cell survival” with EAC47 cells [6] (EAC47, concentration of 10μM). The clonogenic survival in the assay on EAC42 cells [9] (EAC42, 10μM cisplatin for 24h) was 89.19%; with EAC42 cells [9] (EAC42, 50μM cisplatin for 24h), 50.1%; in the assay on EAC47 cells [10] (EAC47, 10μM cisplatin for 24h) it was 95.75%; in the assay on EAC47 cells [10] (EAC47, 50μM cisplatin for 24h), 28.64%.
`CN(C)c1ccc(C(=O)NCCCCCCC(=O)NO)cc1` [M-344]: the “% cell killing /control” value with Flo-1 cells [1] came out at 56.82%; with OE33 cells [2] it was 68.75%.
Consider `CC(C)[C@H](C(=O)Nc1ccc(C(=O)NO)cc1)c1ccccc1` [(S)-HDAC-42], for which the figures for the cytotoxicity at 6 µM with EAC47 cells [3], in the assay with Flo-1 cells [1] and in the assay with OE33 cells [2] were 76.5%, 84.6% and 89.3%, respectively.
On to `CC1(C)CCC2=C(O1)c1ccccc1C(=O)C2=O` [β-Lapachone], for which the cytotoxicity at 6 µM in the assay on Flo-1 cells [1] was determined as 40.9%.

The values above are taken from paper PMC6136712, “Ex vivo drug sensitivity testing as a means for drug repurposing in esophageal adenocarcinoma” (PLoS ONE, 2018).
